In general, logP refers to a log measure of how a compound divides between an organic and an aqueous phase. A higher logP goes with higher lipophilicity.

Compound `Cc1ccc2c(c1)C(NC(=O)CN1CCOCC1)CO2` (centres undefined) yielded a logP of 1.38.

In turn, `O=C(CN1CCCCC1)NC1COc2ccc(Cl)cc21` (centres undefined) gave a logP of 3.01.

Compound `Cc1ccc2c(c1)C(NC(=O)CN1CCCCC1)CO2` (centres undefined) yielded a logP of 2.78.

Turning to `COc1ccc2c(c1)OCC2NC(=O)CN1CCOCC1` (centres undefined), the log partition coefficient (logP) worked out at 0.92.

`O=C(CN1CCCCC1)NC1COc2ccccc21` (centres undefined) had a logP of 2.3.

Take `CCCCN(CCCC)CC(=O)NC1COc2ccccc21` (centres undefined): the logP amounted to 4.15.

`CCCCN(CCCC)CC(=O)NC1COc2ccc(C)cc21` (centres undefined) returned a lipophilicity (logP) of 4.43.

Turning to `CCN(CC)CC(=O)NC1COc2ccc(Cl)cc21` (centres undefined), the lipophilicity (logP) is 2.88.

The compound `CCCCN(CCCC)CC(=O)NC1COc2cc(OC)ccc21` (centres undefined) came in with a logP of 4.24.

`CCN(CC)CC(=O)NC1COc2ccccc21` (centres undefined) gave a logP of 2.2.

The compound `O=C(CN1CCOCC1)NC1COc2ccc(Cl)cc21` (centres undefined) returned a logP of 1.55.

`CCN(CC)CC(=O)NC1COc2ccc(C)cc21` (centres undefined): the logP is 2.69.

Consider `O=C(CN1CCCC1)NC1COc2ccccc21` (centres undefined), for which the logP is 1.76.

`O=C(CN1CCOCC1)NC1COc2ccccc21` (centres undefined) had a logP of 0.81.

Compound `O=C(CN1CCCC1)NC1COc2ccc(Cl)cc21` (centres undefined) registered a logP of 2.47.

`COc1ccc2c(c1)OCC2NC(=O)CN1CCCC1` (centres undefined) gave a log partition coefficient (logP) of 1.92.

In the case of `Cc1ccc2c(c1)C(NC(=O)CN1CCCC1)CO2` (centres undefined), the logP came to 2.24.

In turn, `CCCCN(CCCC)CC(=O)NC1COc2ccc(Cl)cc21` (centres undefined) had a logP of 4.44.

Compound `COc1ccc2c(c1)OCC2NC(=O)CN1CCCCC1` (centres undefined) yielded a lipophilicity (logP) of 2.41.
